25 molecules from US8436012B2, “Imidazopyridin-2-one derivatives” (Daiichi Sankyo Company, Limited, priority 2008, dated 2013) can be followed below.

The target in one test is T1, human mTOR (Homo sapiens, UniProt P42345).
T1 construct: the portion corresponding to 1362-2549aa at the C terminus of human mTOR; made in house
The test is described as follows: mTOR Kinase Activity Inhibition Test. It is filed as biochemical. The conditions noted are these: His-tagged mTOR (1362C), biotinylated peptide substrate, ATP, 3 hours at room temperature, fluorescence resonance energy transfer 665 nm/620 nm; read-out: IC50 value of mTOR enzyme inhibitory activity. An outline of the steps:
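Purified His-tagged human mTOR (1362–2549aa, from HEK293) was used with biotinylated peptide (8 μg/mL in enzyme solution) in HEPES pH 7.5 with 20 mM MnCl2. Compounds were diluted in 20 μM ATP solution, and the reaction ran 3 h at RT. Phospho-S6K(Thr389) HTRF was read as the 665/620 nm ratio, and IC50 came from % inhibition versus controls.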

The next test concerns WM-266-4 cells. Briefly: Cell Proliferation Inhibitory Test. In kind it is cell-based. To be noted: Homo sapiens, 72 h, cultured three days with test compound, MTT, read-out: 50% cell proliferation inhibitory activity (GI50 value). The procedure, abridged:
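Cells cultured overnight, then exposed to serially diluted compound for three days; cell amount read by MTT. GI50 solved from 100×[(T−T0)/(C−T0)]=50, with T0 the value at time of compound addition and C the untreated three-day control.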

T1 sequence (P42345 1362-2549): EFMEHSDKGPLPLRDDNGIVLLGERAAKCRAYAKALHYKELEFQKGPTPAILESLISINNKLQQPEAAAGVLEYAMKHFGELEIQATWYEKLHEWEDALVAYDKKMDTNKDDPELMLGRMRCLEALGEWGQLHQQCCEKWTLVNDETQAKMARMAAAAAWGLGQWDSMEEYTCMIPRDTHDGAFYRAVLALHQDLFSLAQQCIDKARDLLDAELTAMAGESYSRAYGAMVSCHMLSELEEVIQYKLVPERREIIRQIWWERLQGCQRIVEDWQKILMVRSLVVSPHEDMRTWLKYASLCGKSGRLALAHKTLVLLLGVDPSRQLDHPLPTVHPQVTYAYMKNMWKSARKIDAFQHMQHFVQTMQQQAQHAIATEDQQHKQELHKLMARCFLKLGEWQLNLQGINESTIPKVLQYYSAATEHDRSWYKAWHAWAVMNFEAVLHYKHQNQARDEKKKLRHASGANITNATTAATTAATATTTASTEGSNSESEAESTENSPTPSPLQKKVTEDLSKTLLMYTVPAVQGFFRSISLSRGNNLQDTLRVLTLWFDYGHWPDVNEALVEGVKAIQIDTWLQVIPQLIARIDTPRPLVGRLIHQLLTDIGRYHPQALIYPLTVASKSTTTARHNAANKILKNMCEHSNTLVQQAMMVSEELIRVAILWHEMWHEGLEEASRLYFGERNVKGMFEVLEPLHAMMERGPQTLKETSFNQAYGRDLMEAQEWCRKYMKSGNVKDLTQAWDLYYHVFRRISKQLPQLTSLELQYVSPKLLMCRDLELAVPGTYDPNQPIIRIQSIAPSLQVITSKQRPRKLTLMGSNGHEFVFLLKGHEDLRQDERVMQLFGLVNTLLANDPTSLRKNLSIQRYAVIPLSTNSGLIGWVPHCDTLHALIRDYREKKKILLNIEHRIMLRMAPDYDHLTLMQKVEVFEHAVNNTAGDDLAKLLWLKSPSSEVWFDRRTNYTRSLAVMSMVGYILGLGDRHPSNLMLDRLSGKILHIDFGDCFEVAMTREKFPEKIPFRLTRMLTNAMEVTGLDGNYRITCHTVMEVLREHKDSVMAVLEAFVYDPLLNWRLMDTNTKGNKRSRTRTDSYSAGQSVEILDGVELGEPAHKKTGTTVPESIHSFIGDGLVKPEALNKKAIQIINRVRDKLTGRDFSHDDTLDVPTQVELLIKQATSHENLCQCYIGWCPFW

As to `CCOC(=O)c1c[nH]c2ncc(-c3cnc4[nH]c(=O)n(CC5CCOCC5)c4c3)cc12` [Example 92, Ethyl 5-[2-oxo-1-(tetrahydro-2H-pyran-4-ylmethyl)-2,3-dihydro-1H-imidazo[4,5-b]pyridin-6-yl]-1H-pyrrolo[2,3-b]pyridine-3-carboxylate], at human mTOR, the IC50 was < 50 nM. Moreover, the GI50 in the test with WM-266-4 cells was < 3000 nM.
For `CCOCc1cc2cc(-c3cnc4[nH]c(=O)n(CC5CCOCC5)c4c3)cnc2[nH]1` [Example 86, 6-[2-(Ethoxymethyl)-1H-pyrrolo[2,3-b]pyridin-5-yl]-1-(tetrahydro-2H-pyran-4-ylmethyl)-1,3-dihydro-2H-imidazo[4,5-b]pyridin-2-one], in that order: 100 to 5000 nM and 3000 to 25000 nM.
For `C[C@@H]1C[C@H](Cn2c(=O)[nH]c3ncc(-c4cnc5[nH]ccc5c4)cc32)C[C@H](C)O1` [Example 71, 1-{[(2R-4r-6S)-2,6-Dimethyltetrahydro-2H-pyran-4-yl]methyl}-6-(1H-pyrrolo-[2,3-b]pyridin-5-yl)-1,3-dihydro-2H-imidazo[4,5-b]pyridin-2-one], in that order: < 50 nM and < 3000 nM.
Turning to `O=c1[nH]c2ncc(-c3cnc4[nH]ccc4c3F)cc2n1C[C@H]1COCCO1` [Example 120, 1-[(2S)-1,4-Dioxan-2-ylmethyl]-6-(4-fluoro-1H-pyrrolo[2,3-b]pyridin-5-yl)-1,3-dihydro-2H-imidazo[4,5-b]pyridin-2-one], the IC50 at human mTOR is < 50 nM. For the same molecule, the GI50 in the test on WM-266-4 cells is < 3000 nM.
For `O=c1[nH]c2ncc(-c3cnc4[nH]ccc4c3)cc2n1CC1CCCOC1` (centres unmarked) [Example 32, 6-(1H-Pyrrolo[2,3-b]pyridin-5-yl)-1-(tetrahydro-2H-pyran-3-ylmethyl)-1,3-dihydro-2H-imidazo[4,5-b]pyridin-2-one], in that order: < 50 nM and < 3000 nM.
For `CS(=O)(=O)N1CCC(Cn2c(=O)[nH]c3ncc(-c4cnc5[nH]ccc5c4)cc32)CC1` [Example 26, 1-{[1-(Methanesulfonyl)piperidin-4-yl]methyl}-6-(1H-pyrrolo[2,3-b]pyridin-5-yl)-1,3-dihydro-2H-imidazo[4,5-b]pyridin-2-one], in that order: < 50 nM and < 3000 nM.
For `Cc1nc2[nH]ccc2cc1-c1cnc2[nH]c(=O)n(CC3CCOCC3)c2c1` [Example 16, 6-(6-Methyl-1H-pyrrolo[2,3-b]pyridin-5-yl)-1-(tetrahydro-2H-pyran-4-ylmethyl)-1,3-dihydro-2H-imidazo[4,5-b]pyridin-2-one], in that order: < 50 nM and < 3000 nM.
For the molecule `O=c1[nH]c2ncc(-c3cnc4[nH]ccc4c3)cc2n1C[C@H]1CC[C@@H](O)CC1` [Example 102, 1-[(cis-4-Hydroxycyclohexyl)methyl]-6-(1H-pyrrolo[2,3-b]pyridin-5-yl)-1,3-dihydro-2H-imidazo[4,5-b]pyridin-2-one], at human mTOR, the IC50 was < 50 nM. Besides, in the test on WM-266-4 cells, the GI50 was < 3000 nM.
For `Cc1c(-c2cnc3[nH]c(=O)n(C[C@H]4COCCO4)c3c2)cnc2[nH]cc(Cl)c12` [Example 125, 6-(3-Chloro-4-methyl-1H-pyrrolo[2,3-b]pyridin-5-yl)-1-[(2S)-1,4-dioxan-2-ylmethyl]-1,3-dihydro-2H-imidazo[4,5-b]pyridin-2-one], in that order: < 50 nM and < 3000 nM.
For `CN1C(=O)COC[C@@H]1Cn1c(=O)[nH]c2ncc(-c3cnc4[nH]ccc4c3)cc21` [Example 109, 1-{[(3S)-4-Methyl-5-oxomorpholin-3-yl]methyl}-6-(1H-pyrrolo[2,3-b]pyridin-5-yl)-1,3-dihydro-2H-imidazo[4,5-b]pyridin-2-one], in that order: < 50 nM and 3000 to 25000 nM.
For `Nc1c(-c2cnc3[nH]c(=O)n(C[C@H]4COCCO4)c3c2)cnc2[nH]ccc12` [Example 130, 6-(4-Amino-1H-pyrrolo[2,3-b]pyridin-5-yl)-1-[(2S)-1,4-dioxan-2-ylmethyl]-1,3-dihydro-2H-imidazo[4,5-b]pyridin-2-one], in that order: < 50 nM and 3000 to 25000 nM.
Take `O=c1[nH]c2ncc(-c3cnc4[nH]ccc4c3)cc2n1CC1CC1` [Example 21, 1-(Cyclopropylmethyl)-6-(1H-pyrrolo[2,3-b]pyridin-5-yl)-1,3-dihydro-2H-imidazo[4,5-b]pyridin-2-one]: the IC50 on human mTOR is < 50 nM. In addition, the GI50 in the test with WM-266-4 cells was < 3000 nM.
For `CO[C@@H]1CC[C@H](Cn2c(=O)[nH]c3ncc(-c4cnc5[nH]ccc5c4C)cc32)OC1` (racemic) [Example 142, 2,6-Anhydro-1,3,4-trideoxy-5-O-methyl-1-[6-(4-methyl-1H-pyrrolo[2,3-b]pyridin-5-yl)-2-oxo-2,3-dihydro-1H-imidazo[4,5-b]pyridin-1-yl]-DL-threo-hexitol], in that order: < 50 nM and < 3000 nM.
For `Cc1nc2[nH]c(=O)n(CC3CCOCC3)c2cc1-c1ccc2[nH]ccc2c1` [Example 7, 6-(1H-Indol-5-yl)-5-methyl-1-(tetrahydro-2H-pyran-4-ylmethyl)-1,3-dihydro-2H-imidazo[4,5-b]pyridin-2-one], in that order: < 50 nM and < 3000 nM.
For `Cc1[nH]c2ncc(-c3cnc4[nH]c(=O)n(CC5CCOCC5)c4c3)cc2c1C` [Example 87, 6-(2,3-Dimethyl-1H-pyrrolo[2,3-b]pyridin-5-yl)-1-(tetrahydro-2H-pyran-4-ylmethyl)-1,3-dihydro-2H-imidazo[4,5-b]pyridin-2-one], in that order: 100 to 5000 nM and 3000 to 25000 nM.
For the molecule `CO[C@H]1CC[C@@H](Cn2c(=O)[nH]c3ncc(-c4cnc5[nH]ccc5c4)cc32)OC1` [Example 135, 2,6-Anhydro-1,3,4-trideoxy-5-O-methyl-1-[2-oxo-6-(1H-pyrrolo[2,3-b]pyridin-5-yl)-2,3-dihydro-1H-imidazo[4,5-b]pyridin-1-yl]-D-threo-hexitol], the IC50 at human mTOR was < 50 nM. For the same molecule, the GI50 in the test with WM-266-4 cells is < 3000 nM.
On to `N#CC1(Cn2c(=O)[nH]c3ncc(-c4cnc5[nH]ccc5c4)cc32)CCOCC1` [Example 100, 4-{[2-Oxo-6-(1H-pyrrolo[2,3-b]pyridin-5-yl)-2,3-dihydro-1H-imidazo[4,5-b]pyridin-1-yl]methyl}tetrahydro-2H-pyran-4-carbonitrile], for which the IC50 on human mTOR was < 50 nM. Moreover, the GI50 in the test on WM-266-4 cells was < 3000 nM.
For `O=c1[nH]c2ncc(-c3cnc4[nH]ccc4c3)cc2n1C[C@H]1CC[C@@H](O)CO1` (racemic) [Example 112, 2,6-Anhydro-1,3,4-trideoxy-1-[2-oxo-6-(1H-pyrrolo[2,3-b]pyridin-5-yl)-2,3-dihydro-1H-imidazo[4,5-b]pyridin-1-yl]-DL-threo-hexitol], in that order: < 50 nM and < 3000 nM.
For `O=c1[nH]c2ncc(-c3ccc4[nH]ccc4c3F)cc2n1CC1CCOCC1` [Example 27, 6-(4-Fluoro-1H-indol-5-yl)-1-(tetrahydro-2H-pyran-4-ylmethyl)-1,3-dihydro-2H-imidazo[4,5-b]pyridin-2-one], in that order: < 50 nM and < 3000 nM.
Consider `COc1c(-c2cnc3[nH]c(=O)n(C[C@H]4COCCO4)c3c2)cnc2[nH]ccc12` [Example 133, 1-[(2S)-1,4-Dioxan-2-ylmethyl]-6-(4-methoxy-1H-pyrrolo[2,3-b]pyridin-5-yl)-1,3-dihydro-2H-imidazo[4,5-b]pyridin-2-one], for which, at human mTOR, the IC50 was < 50 nM. For the same molecule, the GI50 in the test with WM-266-4 cells is < 3000 nM.
For `CS(=O)(=O)N1CCN(CCn2c(=O)[nH]c3ncc(-c4cnc5[nH]ccc5c4)cc32)CC1` [Example 60, 1-{2-[4-(Methylsulfonyl)piperazin-1-yl]ethyl}-6-(1H-pyrrolo[2,3-b]pyridin-5-yl)-1,3-dihydro-2H-imidazo[4,5-b]pyridin-2-one], in that order: < 50 nM and < 3000 nM.
For `Nc1c[nH]c2ncc(-c3cnc4[nH]c(=O)n(CC5CCOCC5)c4c3)cc12` [Example 77, 6-(3-Amino-1H-pyrrolo[2,3-b]pyridin-5-yl)-1-(tetrahydro-2H-pyran-4-ylmethyl)-1,3-dihydro-2H-imidazo[4,5-b]pyridin-2-one], in that order: 50 to 100 nM and 3000 to 25000 nM.
For `O=c1[nH]c2ncc(-c3cc4cc[nH]c4cn3)cc2n1CC1CCOCC1` [Example 83, 6-(1H-Pyrrolo[2,3-c]pyridin-5-yl)-1-(tetrahydro-2H-pyran-4-ylmethyl)-1,3-dihydro-2H-imidazo[4,5-b]pyridin-2-one], in that order: < 50 nM and < 3000 nM.
Regarding `Cc1nc2[nH]c(=O)n(C[C@H]3CC[C@@H](O)CO3)c2cc1-c1cnc2[nH]ccc2c1` [Example 149, 2,6-Anhydro-1,3,4-trideoxy-1-[5-methyl-2-oxo-6-(1H-pyrrolo[2,3-b]pyridin-5-yl)-2,3-dihydro-1H-imidazo[4,5-b]pyridin-1-yl]-L-threo-hexitol], the IC50 on human mTOR was < 50 nM. In addition, in the test on WM-266-4 cells, the GI50 was < 3000 nM.
For `O=c1[nH]c2ncc(-c3cnc4[nH]ccc4n3)cc2n1CC1CCOCC1` [Example 75, 6-(5H-Pyrrolo[2,3-b]pyrazin-2-yl)-1-(tetrahydro-2H-pyran-4-ylmethyl)-1,3-dihydro-2H-imidazo[4,5-b]pyridin-2-one], in that order: 50 to 100 nM and < 3000 nM.
